Where a SMILES comes first, the peptide text is derived from it. Bridges are numbered along the chain shown (N, C = ends). Where no end group is shown, it is not given here. [ ]: non-standard residue; d: D form. Dab = NCC[C@H](N)C(=O)O
Experiments:
leucine aminopeptidase = molecular target: T1, leucine aminopeptidase (Sus scrofa, UniProt P28839); test: Hydrolysis kinetics in leucine aminopeptidase solution; assay type: in vitro ADME, porcine; conditions: 50 mM phosphate buffer pH 7.4, 37° C., leucine aminopeptidase 25 U/ml; for half-life: pig
T1 construct: purchased Sigma, UK type III-CP (catalogue number not given); host or cells: porcine kidney
T1 sequence (P28839 1-519): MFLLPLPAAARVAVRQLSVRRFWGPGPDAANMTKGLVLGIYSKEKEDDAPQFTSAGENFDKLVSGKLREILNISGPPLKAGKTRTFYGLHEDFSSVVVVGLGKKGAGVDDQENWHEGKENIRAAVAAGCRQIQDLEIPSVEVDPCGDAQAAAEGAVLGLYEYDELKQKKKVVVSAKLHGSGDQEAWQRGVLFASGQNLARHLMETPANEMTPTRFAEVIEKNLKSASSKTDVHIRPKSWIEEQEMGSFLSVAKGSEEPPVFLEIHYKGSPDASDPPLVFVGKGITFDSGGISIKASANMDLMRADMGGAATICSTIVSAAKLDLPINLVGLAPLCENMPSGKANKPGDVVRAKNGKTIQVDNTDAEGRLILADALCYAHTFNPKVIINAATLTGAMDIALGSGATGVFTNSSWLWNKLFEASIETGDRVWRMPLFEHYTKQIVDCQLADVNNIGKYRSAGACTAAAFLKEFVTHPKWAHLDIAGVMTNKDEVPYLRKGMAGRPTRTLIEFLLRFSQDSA
Description: (§1) Carboxypeptidase A (EC 3.4.17.1) type I from bovine pancreas, leucine aminopeptidase (EC 3.4.11.1) type III-CP from porcine kidney, α-chymotrypsin (EC […]) from bovine pancreas, and pepsin A (EC 3.4.23.1) from porcine stomach mucosa […] were obtained from Sigma, UK.
(§2) Gradient HPLC analysis of samples from in vitro kinetic measurements performed as described below was performed using a Hewlett Packard HP 1100 HPLC system consisting of a HP 1100 Binary Pump, a HPI 100 Autosampler, a HPI 100 Column Thermostat and a HP 1100 Variable Wavelength Detector. A Merck LiChroCART column (125×4 mm I.D.) and a LiChroCART precolumn (4×4 mm I.D.) packed with Lichrospher RP-18 (5 .μum particles) was used. The column was kept at 25° C. or 75° C. and the column effluent was measured by UV detection at 215 run. Separation of the peptide conjugates or the native peptides from degradation products and constituents of the reaction solutions was accomplished using gradient elution of the column with mixtures of mobile phase A (0.1 vol % TFA in water) and mobile phase B (0.085 vol % TFA in acetonitrile) at a flow rate of 1 ml/min.
(§3) The degradation of the peptide conjugate and the corresponding native peptide were studied at 37° C. in a 50 mM phosphate buffer solution at pH 7.4 containing leucine arninopeptidase (25 U/ml) or carboxypeptidase A (1 or 25 U/ml). Experiments were initiated by addition of an aliquot (100 μl) of a stock solution (1 mg/ml) of the peptide conjugate or the native peptide to 900 μl preheated enzyme solution giving a final concentration of ˜0.1 mg/ml (10^−5-10^−4M) of the peptide conjugate or the native peptide. The peptide/enzyme solution was kept at 37° C. using a SHT200D block heater from Stuart Scientific. At appropriate time intervals, samples of 100 μl were withdrawn from the peptide/enzyme solution, mixed thoroughly with 20 μl 25% TFA in acetonitrile in order to stop the enzymatic degradation process and analysed by HPLC as described above. Half-lives (t1/2) for the peptide conjugate and the corresponding native peptide in the enzyme solutions were calculated from plots of the natural logarithm to the concentration of the residual peptide (HPLC peak heights) against time using the formula t/2=1/kobs×ln(2), where kobs is the apparent first-order rate constant for the observed degradation.

carboxypeptidase A = molecular target: T2, carboxypeptidase A (Bos taurus, UniProt P00730); test: Hydrolysis kinetics in carboxypeptidase A solution; assay type: in vitro ADME, bovine; conditions: 50 mM phosphate buffer pH 7.4, 37° C., carboxypeptidase A 1 U/ml
T2 construct: purchased Sigma, UK type I (catalogue number not given); host or cells: bovine pancreas
T2 sequence (P00730 111-419): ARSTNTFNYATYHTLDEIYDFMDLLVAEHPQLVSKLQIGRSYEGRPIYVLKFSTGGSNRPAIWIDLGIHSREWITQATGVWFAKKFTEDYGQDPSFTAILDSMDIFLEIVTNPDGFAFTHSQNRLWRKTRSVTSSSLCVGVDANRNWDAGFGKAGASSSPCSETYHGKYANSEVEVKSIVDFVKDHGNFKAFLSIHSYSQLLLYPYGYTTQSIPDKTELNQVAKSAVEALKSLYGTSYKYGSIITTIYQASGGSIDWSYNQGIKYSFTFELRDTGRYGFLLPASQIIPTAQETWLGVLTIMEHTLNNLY
Description: as §1, §2, §3

| Molecule | pseudo first-order rate constant for the degradation (leucine aminopeptidase) [min⁻¹] | half-life (leucine aminopeptidase) [h] | half-life (carboxypeptidase A) [h] | pseudo first-order rate constant for the degradation (carboxypeptidase A) [min⁻¹] |
| --- | --- | --- | --- | --- |
| H-KKKKKKYGGFL-OH [(Lys)6-Leu-Enkephalin-OH, H-Lys6 Tyr-Gly-Gly-Phe-Leu-OH] | 0.026 | 0.45 |  |  |
| CC(C)C[C@@H]1NC(=O)[C@@H]2CCCN2C(=O)CNC(=O)[C@H](Cc2ccccc2)NC(=O)[C@H](Cc2c[nH]cn2)NC(=O)[C@@H](NC(=O)[C@H](CO)NC(=O)[C@H](Cc2ccc(O)cc2)NC(=O)[C@@H](NC(=O)CNC(=O)CNC(=O)[C@H](CCCCN)NC(=O)[C@H](CCCCN)NC(=O)[C@H](CCCCN)NC(=O)[C@H](CCCCN)NC(=O)[C@H](CCCCN)NC(=O)[C@@H](N)CCCCN)[C@@H](C)O)CSSC[C@@H](C(=O)N[C@@H](CCCCN)C(=O)N2CCC[C@H]2C(=O)N[C@@H](CCC(N)=O)C(=O)NCC(=O)NCC(=O)N[C@@H](CCCCN)C(=O)N[C@@H](CCCCN)C(=O)N[C@@H](CCCCN)C(=O)N[C@@H](CCCCN)C(=O)N[C@@H](CCCCN)C(=O)N[C@@H](CCCCN)C(=O)O)NC(=O)[C@H](C(C)C)NC(=O)[C@H](Cc2c[nH]c3ccccc23)NC(=O)[C@H]([C@@H](C)O)NC1=O [(Lys)6-EMP-1-(Lys)6-OH, H-(Lys)6-Gly-Gly-Thr-Tyr-Ser-Cys-His-Phe-Gly-Pro-Leu-Thr -Trp-Val-Cys-Lys-Pro-Gln-Gly-Gly-(Lys)6-OH] (H-KKKKKKGGTYSCHFGPLTWVCKPQGGKKKKKK-OH; disulfide 12-21) |  | > 100 |  |  |
| H-YGGFLKEEEKK-OH [Leu-Enkephalin-Lys-(Glu)3-(Lys)2-OH, H-Tyr-Gly-Gly-Phe-Leu-Lys-(Glu)3-(Lys)2-OH] | 0.12 | 0.095 | 14.4 | 0.0008 |
| CC[C@H](C)[C@H](NC(=O)[C@H](Cc1ccccc1)NC(=O)[C@H](CCC(=O)O)NC(=O)[C@H](CCCCN)NC(=O)[C@H](C)NC(=O)[C@H](C)NC(=O)[C@H](CCC(N)=O)NC(=O)CNC(=O)[C@H](CCC(=O)O)NC(=O)[C@H](CC(C)C)NC(=O)[C@H](Cc1ccc(O)cc1)NC(=O)[C@H](CO)NC(=O)[C@H](CO)NC(=O)[C@@H](NC(=O)[C@H](CC(=O)O)NC(=O)[C@H](CO)NC(=O)[C@@H](NC(=O)[C@H](Cc1ccccc1)NC(=O)[C@@H](NC(=O)CNC(=O)[C@H](CCC(=O)O)NC(=O)[C@H](C)NC(=O)[C@@H](N)Cc1c[nH]cn1)[C@@H](C)O)[C@@H](C)O)C(C)C)C(=O)N[C@@H](C)C(=O)N[C@@H](Cc1c[nH]c2ccccc12)C(=O)N[C@@H](CC(C)C)C(=O)N[C@H](C(=O)N[C@@H](CCCCN)C(=O)NCC(=O)N[C@@H](CCCNC(=N)N)C(=O)O)C(C)C [GLP-1(7-36)(Human)-OH, H-His-Ala-Glu-Gly-Thr-Phe-Thr-Ser-Asp-Val-Ser-Ser-Tyr-Leu -Glu-Gly-Gln-Ala-Ala-Lys-Glu-Phe-Ile-Ala-Trp-Leu-Val-Lys-Gly-Arg-OH, reference compound] |  | 0.367 | 2.47 | 0.0047 |
| H-WAGGDASGEKEKEKE-OH [DSIP-(Lys-Glu)3-OH, H-Trp-Ala-Gly-Gly-Asp-Ala-Ser-Gly-Glu-(Lys-Glu)3-OH] |  | 2.42 |  |  |
| H-RPKPQQFFGLMKKKKKK-NH2 [Substance P-(Lys)6-NH2, H-Arg-Pro-Lys-Pro-Gln-Gln-Phe-Phe-Gly-Leu-Met-Lys6 -NH2] | 0.011 | 1.1 | 2.1 | 0.0055 |
| CC[C@H](C)[C@H](NC(=O)[C@H](Cc1ccccc1)NC(=O)[C@H](CCC(=O)O)NC(=O)[C@H](CCCCN)NC(=O)[C@H](C)NC(=O)[C@H](C)NC(=O)[C@H](CCC(N)=O)NC(=O)CNC(=O)[C@H](CCC(=O)O)NC(=O)[C@H](CC(C)C)NC(=O)[C@H](Cc1ccc(O)cc1)NC(=O)[C@H](CO)NC(=O)[C@H](CO)NC(=O)[C@@H](NC(=O)[C@H](CC(=O)O)NC(=O)[C@H](CO)NC(=O)[C@@H](NC(=O)[C@H](Cc1ccccc1)NC(=O)[C@@H](NC(=O)CNC(=O)[C@H](CCC(=O)O)NC(=O)[C@H](C)NC(=O)[C@@H](N)Cc1c[nH]cn1)[C@@H](C)O)[C@@H](C)O)C(C)C)C(=O)N[C@@H](C)C(=O)N[C@@H](Cc1c[nH]c2ccccc12)C(=O)N[C@@H](CC(C)C)C(=O)N[C@H](C(=O)N[C@@H](CCCCN)C(=O)NCC(=O)N[C@@H](CCCNC(=N)N)C(=O)N[C@@H](CCCCN)C(=O)N[C@@H](CCCCN)C(=O)N[C@@H](CCCCN)C(=O)N[C@@H](CCCCN)C(=O)N[C@@H](CCCCN)C(=O)N[C@@H](CCCCN)C(=O)O)C(C)C [GLP-1(7-36)(Human)-(Lys)6-OH, H-His-Ala-Glu-Gly-Thr-Phe-Thr-Ser-Asp-Val-Ser-Ser-Tyr-Leu -Glu-Gly-Gln-Ala-Ala-Lys-Glu-Phe-Ile-Ala-Trp-Leu-Val-Lys-Gly-Arg-(Lys)6-OH] | 0.013 | 0.883 | 1.45 | 0.008 |
| CC(C)C[C@@H]1NC(=O)[C@@H]2CCCN2C(=O)CNC(=O)[C@H](Cc2ccccc2)NC(=O)[C@H](Cc2c[nH]cn2)NC(=O)[C@@H](NC(=O)[C@H](CO)NC(=O)[C@H](Cc2ccc(O)cc2)NC(=O)[C@@H](NC(=O)CNC(=O)CNC(=O)[C@H](CCCCN)NC(=O)[C@H](CCCCN)NC(=O)[C@H](CCCCN)NC(=O)[C@H](CCCCN)NC(=O)[C@H](CCCCN)NC(=O)[C@@H](N)CCCCN)[C@@H](C)O)CSSC[C@@H](C(=O)N[C@@H](CCCCN)C(=O)N2CCC[C@H]2C(=O)N[C@@H](CCC(N)=O)C(=O)NCC(=O)NCC(=O)O)NC(=O)[C@H](C(C)C)NC(=O)[C@H](Cc2c[nH]c3ccccc23)NC(=O)[C@H]([C@@H](C)O)NC1=O [(Lys)6-EMP-1-OH, H-(Lys)6-Gly-Gly-Thr-Tyr-Ser-Cys-His-Phe-Gly-Pro-Leu -Thr-Trp-Val-Cys-Lys-Pro-Gln-Gly-Gly-OH] (H-KKKKKKGGTYSCHFGPLTWVCKPQGG-OH; disulfide 12-21) |  | > 24 |  |  |
| CC(C)C[C@H](NC(=O)[C@H](Cc1ccccc1)NC(=O)CNC(=O)CNC(=O)[C@@H](N)Cc1ccc(O)cc1)C(=O)N[C@@H](CCN)C(=O)N[C@@H](CCN)C(=O)N[C@@H](CCN)C(=O)N[C@@H](CCN)C(=O)N[C@@H](CCN)C(=O)N[C@@H](CCN)C(=O)O [Leu-Enkephalin-(Dbu)6-OH, H-Tyr-Gly-Gly-Phe-Leu-(Dbu)6-OH] (H-YGGFL[Dab][Dab][Dab][Dab][Dab][Dab]-OH) | 0.025 | 0.467 | 23.1 | 0.005 |
| WAGGDASGE [DSIP, H-Trp-Ala-Gly-Gly-Asp-Ala-Ser-Gly-GIu-OH, reference compound] |  | < 0.333 |  |  |
| KKKKKKYGGFLKKKKKK [(Lys)6-Leu-Enkephalin-(Lys)6-OH, H-Lys6-Tyr-Gly-Gly-Phe-Leu-Lys6 OH] |  | > 100 |  |  |
